The text below walks through data of patent US11202773B2, “Locally bioavailable drugs” (UNIVERSITY OF HOUSTON SYSTEM, priority 2015, dated 2021).

For data set [1] the following is noted: rat, in vivo.
Procedure: For this purpose, blood samples were collected from each rat every hour during the perfusion period, and the bile samples were also collected by cannulating the bile duct.
By comparing the 6a1 concentrations in the input and output perfusate containing β-CD-formulated 6a1, the amounts of 6a1 absorbed from the colon were calculated for each hour during the perfusion period (FIG. 10B).
Data set [2] has as its system human Colon S9. The experiment in a line: Sulfation by human colon S9. The class given is in vitro ADME. As to conditions: substrate 10 μM. How it is done: (§1) FIG. 5D is a bar graph illustrating in vitro metabolism of phenolics. Glucuronidation rates of 6a1-6a4 by human liver and intestinal microsomes. Additional metabolic rates of various locally bioavailable COX-2 inhibitors are in Table 4. […]. The incubation systems were: for glucuronidation, 0.88 mM magnesium chloride (MgCl2), 4.4 mM saccharolactone, 0.022 mg/mL alamethicin, 3.5 mM uridine 5′-diphospho-glucuronic acid (UDPGA), 10 μM substrates and different concentrations of microsomes in 50 mM potassium phosphate buffer (pH 7.4); for sulfation, 10 mM dithiothreitol (DTT), 5 mM MgCl2, 100 μM 3′-phosphoadenosine-5′-phosphosulfate (PAPS),10 μM substrate and different concentrations of S9 fractions in 50 mM potassium phosphate buffer (pH 7.4).
In vitro tools were employed to help predict the in vivo metabolism rates of the COX-2 inhibitors that are phenolics. The microsomes and S9 fractions prepared from colon or liver were used to determine the in vivo glucuronidation and sulfation rates of the phenolic compounds, respectively. By employing microsomes and S9 fractions prepared from both rats and humans, it could be determined if the results obtained in the rat model could be reasonably extrapolated to humans. In these experiments, raloxifene and genistein, two phenolic compounds which undergo extensive first-pass metabolism, were selected as controls.

For the next data set, the system named is Caco-2 cell monolayer. The experiment in a line: Metabolism and transport across Caco-2 cell monolayers. The class given is in vitro ADME, human. As to conditions: 0-8 hours. The procedure: The Caco-2 cell monolayer is a well-established FDA-recognized model to study the absorption, transport, and metabolism of drugs in the human gastrointestinal tract. This allows for prediction of the disposition of the new compounds in colonic epithelium that is also undergoing carcinogenesis, because Caco-2 is a human colorectal cancer cell line.
After 10 μM 6a1 was applied to the apical or basolateral side of the Caco-2 monolayer model, the concentrations of 6a1 and its main phase II metabolites, glucuronide and sulfate, were monitored at both sides (FIG. 6A-D). The concentration of aglycone was also monitored at both sides. […] The majority of sulfates were effluxed to the apical side, while less was transported to the basolateral side. The amount of glucuronide generated by Caco-2 cells was much less than that of sulfates. The glucuronide was also transported to both sides.
On the technique in general: Caco-2 cells form a polarised layer with tight junctions and transporters.

The test system of data set [3] is human Colon S9. Put plainly: Glucuronidation by human colon S9. The format is in vitro ADME. As to conditions: substrate 10 μM. The procedure: as §1
In vitro tools were employed to help predict the in vivo metabolism rates of the COX-2 inhibitors that are phenolics. […] By employing microsomes and S9 fractions prepared from both rats and humans, it could be determined if the results obtained in the rat model could be reasonably extrapolated to humans. In these experiments, raloxifene and genistein, two phenolic compounds which undergo extensive first-pass metabolism, were selected as controls.

A short description of data set [4]: Solubility in HBSS with or without β-cyclodextrin. The format is physicochemical.
Data set [5] addresses T1, human COX-2 (Homo sapiens, UniProt P35354).
T1 sequence (P35354 18-604): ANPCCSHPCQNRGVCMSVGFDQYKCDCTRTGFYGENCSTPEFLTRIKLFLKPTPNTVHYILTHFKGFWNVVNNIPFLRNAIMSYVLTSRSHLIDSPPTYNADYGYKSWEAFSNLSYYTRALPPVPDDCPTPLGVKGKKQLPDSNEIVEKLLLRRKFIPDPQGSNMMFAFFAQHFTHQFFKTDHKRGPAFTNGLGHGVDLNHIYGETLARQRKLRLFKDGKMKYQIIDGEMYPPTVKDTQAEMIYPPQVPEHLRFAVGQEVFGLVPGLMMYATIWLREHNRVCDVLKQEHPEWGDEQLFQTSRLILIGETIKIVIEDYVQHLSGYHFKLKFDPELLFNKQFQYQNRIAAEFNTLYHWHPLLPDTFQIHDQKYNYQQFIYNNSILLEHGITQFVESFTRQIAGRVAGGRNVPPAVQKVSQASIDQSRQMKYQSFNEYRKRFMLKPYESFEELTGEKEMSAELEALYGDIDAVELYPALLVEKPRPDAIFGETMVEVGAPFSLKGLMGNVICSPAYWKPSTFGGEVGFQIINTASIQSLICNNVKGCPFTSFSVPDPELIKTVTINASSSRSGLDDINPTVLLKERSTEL
The experiment in a line: COX-2 activity (PGE2 production) in HCA-7 cells after A23187. The format is cell-based. Further details: HCA-7 is a human colon cancer cell line in which COX-2 protein is constitutively expressed; endogenous in cells; host or cells: HCA-7. As to conditions: 30 min pre-incubation, 10 μM A23187, another 30 minutes. The procedure:
First, the inhibitory effects of the new synthesized compounds on COX-2 were assayed in two cell lines: Raw264.7 cells and HCA-7 cells. Raw264.7 is a mouse macrophage cell line which expresses a high level of COX-2 protein upon lipopolysaccharide (LPS) induction. […] The concentration of prostaglandins (both PGD2 and PGE2) accumulated in the cell culture medium can be employed as an indicator of COX-2 activity. HCA-7 is a human colon cancer cell line in which COX-2 protein is constitutively expressed. Briefly, the cells were pre-incubated with different concentrations of the new compounds for 30 min, and then 10 μM A23187 (a calcium ionophore) was added to release membrane-bound arachidonic acid (the natural substrate of COX-2) to the cytosolic domain. The system was incubated for another 30 minutes and PGE2 concentrations in the culture medium were determined. In both cell lines, higher PGD2/PGE2 concentrations in the media meant more COX-2 activity.

Data set [6] deals with T1, human COX-2. Put plainly: In vitro enzyme assay, recombinant human COX-2 (PGE2 production). As to conditions: for IC50: read-out: IC50 against recombinant human COX-2; for Inhibition of COX-2 enzyme (PGE2 production, FIG. 3A): result in words. The format is biochemical. An excerpt: FIG. 3A is a bar graph illustration of PGE2 production by recombinant human COX-2 enzyme in the presence of the new compounds. Less PGE2 production means inhibition of COX-2 enzyme.
FIG. 3B is a bar graph illustration of PGE2 production by recombinant human COX-2 enzyme in the presence of the metabolites of the new compounds. Less PGE2 production means inhibition of COX-2 enzyme.

For data set [7] the following is noted: rat, in vivo, po, 20 mg/kg.
Procedure: The drugs were dispersed in ORA-PLUS® suspension vehicle (from Paddock Laboratories, Minneapolis, Minn.) and administrated to SD rats by oral gavage. The blood samples were collected from the tail tips at different time points.
Therefore, 20 mg/kg 6a1 was administered in suspension vehicle to the proximal colon of SD rats via a catheter reaching approximately 8 cm deep into the anus.

A word on the IC50: it is the concentration that gives 50% inhibition.

Take `Cc1ccc(-c2cc(COc3ccccc3O)nn2-c2ccc(S(N)(=O)=O)cc2)cc1` [Compound 6a1]: in data set [1], the “6a1-glucuronide concentration in bile” value is “more than 200 μM”, the “Absorbed amount recovered from bile as glucuronides” value was “approximately 75%”, the “Fraction absorbed in the colon that escaped first-pass metabolism in the liver” value was “less than 1%” and the “Fraction of total perfused amount absorbed in the colon” value is “Approximately 13%”. The “Sulfation rates by human Colon S9 (Mean)” value in the data set with human Colon S9 [2] is 110 pmol/mg/min. The “Permeation of the Caco-2 cell membrane” value in the data set with Caco-2 cell monolayer (10 μM applied to apical or basolateral side) is recorded as “permeated the Caco-2 cell membrane easily”. In addition, the “Phase II conjugation inside Caco-2 cells” value with Caco-2 cell monolayer (10 μM) is “rapidly conjugated by UGTs and SULTs”. The “Glucuronidation rates by human Colon S9 (Mean)” value with human Colon S9 [3] came out at 1080 pmol/mg/min. Besides, in data set [4] (6a1 in HBSS with 4 mM β-CD), the “Osmotic pressure of the solution” value was 290 mOsm/kg. The “Solubility in HBSS” value in data set [4] (in the presence of 4 mM β-CD, after sonication and centrifuge) was 70 µM. The molecule also showed an IC50 against human COX-2 [5] of 0.195 ± 0.03 µM. In addition, on human COX-2 [6], the IC50 turned out to be 0.118 µM and the “Inhibition of COX-2 enzyme (PGE2 production, FIG. 3A)” value (“Inhibition of COX-2 enzyme” for short) is recorded as “effective inhibitors”.

`Cc1ccc(-c2cc(COc3cccc(O)c3)nn2-c2ccc(S(N)(=O)=O)cc2)cc1` [Compound 6a2] displayed an IC50 against human COX-2 [5] of 0.134 ± 0.018 µM. On human COX-2 [6], the IC50 is 0.201 µM and the “Inhibition of COX-2 enzyme” value is listed as “effective inhibitors”.

As to `Cc1ccc(-c2cc(COc3ccc(O)cc3)nn2-c2ccc(S(N)(=O)=O)cc2)cc1` [Compound 6a3], the Peak blood concentration in data set [7] turned out to be 1.69 µM. The same molecule gave an IC50 at human COX-2 [5] of 0.064 ± 0.005 µM. At human COX-2 [6], the IC50 worked out at 1.08 µM and the “Inhibition of COX-2 enzyme” value is “effective inhibitors”.
